The structures appear in SMILES notation.

One data set has as its system APP/PS1 mice. Set-up: method as in PMID 31837991. The note with it: APP/PS1 mice ref 27; cited from earlier work.
Data set [1] concerns natural aging AD mice. The data set is described as follows: Immunohistochemistry and Western blot of brain in naturally aged AD mice. The following applies: Dor 2 mg/kg + GENI 25 mg/kg. The format is in vivo. As to the method:
(§1) Each group had 10 mice. GENI was dissolved in ultrapure water and administered by gavage, whereas Dor was dissolved in normal saline. The pH was adjusted to pH 5 with 0.1 M hydrochloric acid to the clarified solution and administered by intraperitoneal injection. The dosing experiment also lasted 10 weeks. Animal behavioral experiments and sampling at the end of the animal experiment were performed as described above.
Firstly, the three mice of each group were subjected to heart perfusion at the end of the animal experiment, and the whole brain was removed and placed in 15 mL of 4% paraformaldehyde and stored at 4 °C for 24 h. Secondly, we changed 4% paraformaldehyde into 15% sucrose solution and stored the solution at 4 °C for 24 h. We then changed the solution to 30% sucrose solution to dehydrate for 2 days. Thirdly, the mouse brain tissue was embedded in a cryo-embedding medium, and about 80 slices with a thickness of 20 μm were cut in the hippocampus using a cryostat (Thermal Fisher, Shanghai, China). The sections of mice in each group were immunohistochemically stained with primary antibodies, such as neuronal nuclear anti gen (NeuN), ionized calcium-binding adapter molecule 1 (Iba-1), inducible nitric oxide synthase (iNOS, pro-inflammatory factors), synaptophysin (Syp), and glial fibrillary acidic protein (GFAP), and secondary antibody. The product number and usage ratios of primary and secondary antibodies are detailed in Supplementary Table S4. Finally, the sections were observed under an upright two-photon confocal microscope (Olympus BX61, Tokyo, Japan) and recorded by a camera. The pictures were digitized with ImageJ software V1.8.0.112 (National Institutes of Health, Bethesda, MD, USA).
(§2) Western blot analysis for p-AMPK α, AMPK α, p-mTOR, mTOR, p-ULK1, ULK1, and LC3-I/II was conducted according to the information described in the materials and methods section of Supplementary Information.
1.3. Western blot analysis. […]
The supernatants of each group were used as protein samples. For animal samples, an appropriate amount of tissue, such as cerebral cortex and hippocampus (50–100 mg), of each group was weighed, and we added lysis buffer with 1:9 ratios. After grinding and centrifuging, the supernatants of each group were used as protein samples. The protein concentration was measured with a BCA assay kit (Beijing Cowin Biotech Company, Beijing, China). Sodium dodecyl sulphate polyacrylamide gel electrophoresis (SDS-PAGE) was used to separate proteins (15 μg), which were transferred to PVDF membranes. The membrane was incubated with primary and secondary antibodies (Supplementary Table S5 for details). Antigens were visualised using a high-sensitivity chemiluminescence detection kit (Beijing Cowin Biotech Company, Beijing, China). Bands were quantitatively measured using ImageJ software (National Institutes of Health, Bethesda, MD, USA).

The next data set deals with AMPK. In words: Inhibitor experiment with Dor in PC12 cells (Western blot). The following applies: Dor pre-treatment then 10 μM GENI 2 h. Type of data set: cell-based. As to the method: Firstly, 2 × 10^6 cells were added to a 60 mm Petri dish containing 5 mL of DMEM and incubated for 24 h. Secondly, the C group, GENI group, Dor group, and GENI+ Dor group were established. The dishes containing the Dor group were pre-treated with 5 μM Dor for 2 h, and the remaining groups were balanced with DMSO. The group containing 10 μM GENI was added, and the remaining groups were balanced with DMSO. After incubation for 2 h, protein extraction was performed for the Western blot experiment.

Data set [2] relates to natural aging AD mice. The data set is described as follows: Behaviour tests in naturally aged mice with AD. The format is in vivo. As to the method: as §1
The Y-maze is mainly used to study the spatial working memory ability of rodents. The Y-maze consisted of three equal-length arms (50 cm × 18 cm × 35 cm), and the angle between each two arms was 120 degrees. The mice were placed at the end of any arm of the Y-maze and allowed to explore freely for 8 min. The behavioral changes including the total number of entries and alternation (successively entering all three arms of the Y-maze once in turn) were recorded. Percentage altercation = alternation/(entries-2) × 100%. The Y-maze could effectively reflect the ability of animals to recognize and remember novel environments.
NOR was used to detect memory in rodents. We prepared a 40 × 40 × 40 cm square box, camera equipment, and behavioral analysis software. We chose three objects A, B, and C, where objects A and B were exactly the same, and object C was very different from objects A and B. After the start of the experiment, the mice were allowed to acclimate freely in the experimental apparatus for 10 min. Objects A and B were placed into the box, and the mice were allowed to explore for 5 min. We then recorded the exploration time and times. After 1 h, A and C or B and C were placed into the box. After letting the mice explore for 5 min, we recorded the exploration time of the original object and the new object. Discrimination index = exploration time of new objects/total exploration time × 100%.
The MWM installation consisted of a circular pool (120 cm in diameter and 50 cm in height), camera equipment, and a computer analysis system. In the first stage, the platform position was fixed, and mice were placed into the pool from any three of the four origins on the pool facing away from the pool wall. The time when it took for the mouse to find the platform within 120 s, called escape latency, was recorded. The training period lasted 4 days. The escape latency of the mice was recorded daily, and the average value was used as an index to evaluate the ability of learning and memory. On the 5th day, the platform was evacuated by the experimenter. The mice were placed against the platform into the water from any water entry point, and they were allowed to swim freely for 60 s. We then recorded the number of times that they crossed the platform.

Data set [3] in a line: Serum biochemical index of D-galactose mice. The following applies: D+DON 3 mg/kg, mean ± SEM, n 7.
Excerpt: (§3) Each group comprised 10 mice. […] Dosing lasted for 10 weeks. […] The mice were sacrificed after 10 weeks of administration.
(§4) At the end of the animal experiment, the epididymis fat, heart, liver, spleen, and kidney of the mice were removed for weighing analysis.
Data set [4] in a line: Organ weights in the D-gal induced AD mice experiment. The following applies: D-gal + DON 3 mg/kg, gavage 10 weeks, mean ± SEM, n 7.
Excerpt: as §3, §4
Data set [5] relates to PC12 cells. In words: Western blot of LC3 II/LC3 I in the autophagy flow assay. The note with it: 3-MA 5 mM. Type of data set: cell-based. As to the method:
as §2
1.3. Western blot analysis.
For PC12 cell samples, we seeded 2 × 10^6 PC12 cells in each 60 mm dish containing 5 mL of DMEM and incubated the dish for 24 h. For the dose-dependent experiment of GENI, GENI (1, 3 and 10 μM) was added to the dishes and incubated for a period of time (2 hours for p-AMPK α, AMPK α, 48 hours for p-mTOR, mTOR and p-ULK1, ULK1; 8 hours for LC3-I/II). Cells were then collected, lysed using RAPI lysis buffer and centrifuged. The supernatants of each group were used as protein samples. For the protein samples of autophagy flow assay, we seeded 2 × 10^6 PC12 cells in each 60 mm dish containing 5 mL of DMEM and incubated the dish for 24 h.
The GENI, rapamycin and inhibitors, such as chloroquine and 3-MA were added according to the method of autophagy flow assay. After treatment of 18 h, cells were then collected, lysed using RAPI lysis buffer and centrifuged. […] The protein concentration was measured with a BCA assay kit (Beijing Cowin Biotech Company, Beijing, China). […] Bands were quantitatively measured using ImageJ software (National Institutes of Health, Bethesda, MD, USA).

In data set [6] the test system is PC12 cells. In words: Autophagy flow assay (CYTO-ID) in PC12 cells. The format is cell-based. The following applies: 5 mM 3-MA + 10 μM GENI + 10 μM CQ. How it is done:
The experiment was carried out according to the instructions of the CYTO-ID autophagy detection kit (Enzo Biochem, New York, NY, USA). In brief, we seeded 7.5 × 10^4 PC12 cells in each well of a 24-well plate using the cell slide method. The cells were incubated for 24 h at 37 °C in a 5% CO2 incubator. The experiment was divided into control (0.5% DMSO), positive control rapamycin (Rap 500 nM + chloroquine (CQ)), GENI treated-group (10 μM GENI + 10 μM CQ), 3-MA inhibitor group (5 mM 3-MA + 10 μM CQ) and GENI + 3MA group (5 mM 3-MA + 10 μM GENI + 10 μM CQ). The optimum concentration of 3MA inhibitor was referenced in the other report. At first, 0.5 mL of serum-free DMEM (plus 1% dual anti-penicillin–streptomycin) containing 3-MA (5 mM) was used to replace the medium in two groups as well as 0.5 mL of serum-free DMEM was added in the other groups, respectively. After treating for 6 h, 0.5 mL of DMEM containing DMSO (0.5%), Rap (500 nM) + CQ (10 μM), GENI (10 μM) + CQ (10 μM), CQ (10 μM), and GENI (10 μM) + CQ (10 μM) was added into the corresponding group, respectively. After 18 h, we removed the medium and washed cells twice with 1× assay buffer containing 5% FBS. We then added CYTO-ID Green detection reagent and Hocchst 33342 nuclear stain to the cells, which were incubated at 37 °C for 45 min. After three washes with 1× assay buffer, we fixed cells with 4% paraformaldehyde for 20 min. After three washes with 1× assay buffer, we observed the cells with an upright two-photon confocal microscope (Olympus FV1000BX-51, Tokyo, Japan).

Consider `O=C(O)C1=CO[C@@H](O[C@@H]2O[C@H](CO)[C@@H](O)[C@H](O)[C@H]2O)[C@@H]2C(CO)=CC[C@H]12` [GPA, geniposidic acid], for which, in the data set on APP/PS1 mice, the “Aβ deposition in brains” value is “reduce”; the “spatial learning and memory abilities” value is recorded as “significantly improve”.
As for `c1cc(-c2cnn3cc(-c4ccc(OCCN5CCCCC5)cc4)cnc23)ccn1` [Dor, dorsomorphin], in the data set with natural aging AD mice [1], the “activation of the AMPK/mTOR/ULK1 signaling pathway by GENI in hippocampus and cortex, effect of the AMPK inhibitor” value is “suppressed”; the “anti-inflammation effects of GENI on activated microglia and astrocytes and iNOS expression, effect of the AMPK inhibitor” value was “significantly suppressed”; the “effects of GENI on APP, Tau, Aβ and p-Tau, effect of the AMPK inhibitor” value was “inhibited”; the “increase in neurons and synaptophysin expression in hippocampus and cortex by GENI, effect of the AMPK inhibitor” value is “significantly diminished”. Also, in the data set on AMPK, the “phosphorylation of AMPK, ULK1, and LC3 II after GENI treatment, effect of the AMPK inhibitor” value is given as “significantly decreased”. Also, the “GENI effects on escape latency and number of crossing platforms, effect of the AMPK inhibitor” value in the data set on natural aging AD mice [2] (Dor 2 mg/kg + GENI 25 mg/kg) is “partially reduced”. In addition, the “improvement in cognitive function by GENI in Y maze and NOR tests, effect of the AMPK inhibitor” value in the data set with natural aging AD mice [2] (Dor 2 mg/kg i.p. once every 2 days + GENI 25 mg/kg) is reported as “significantly decreased”.
In data set [3], `COc1cc2c(cc1OC)C(=O)C(CC1CCN(Cc3ccccc3)CC1)C2` (stereo not shown) [DON, donepezil] had an ALB of 24.0 ± 1.6 g/L. In data set [4], the Fat weight turned out to be 0.728 ± 0.302 g, the Heart weight came to 0.196 ± 0.048 g, the Kidney weight was determined as 0.547 ± 0.034 g and the Spleen weight was found to be 0.113 ± 0.015 g.
Take `Cn1cnc(N)c2ncnc1-2` [3-MA, reference compound]: the “conversion of LC3 I to LC3 II induced by GENI, effect of the inhibitor” value with PC12 cells [5] is “diminished”. In addition, the “autophagy induced by GENI, effect of the inhibitor” value in the data set on PC12 cells [6] is listed as “inhibited”.

Values taken from article PMC11763059, “GENI as an AMPK Activator Binds α and γ Subunits and Improves the Memory Dysfunction of Alzheimer’s Disease Mouse Models via Autophagy and Neuroprotection” (Antioxidants, 2025).
